Measured values from ChEMBL document CHEMBL5291721, “A preclinical secondary pharmacology resource illuminates target-adverse drug reaction associations of marketed drugs” (Nat Commun, 2023).

What was measured:
Vasopressin V2 receptor = Vasopressin V2 receptor (Homo sapiens, UniProt P30518)
[1] = target: T1, Type-1 angiotensin II receptor (Homo sapiens, UniProt P30556)
T1 sequence (P30556 whole entry): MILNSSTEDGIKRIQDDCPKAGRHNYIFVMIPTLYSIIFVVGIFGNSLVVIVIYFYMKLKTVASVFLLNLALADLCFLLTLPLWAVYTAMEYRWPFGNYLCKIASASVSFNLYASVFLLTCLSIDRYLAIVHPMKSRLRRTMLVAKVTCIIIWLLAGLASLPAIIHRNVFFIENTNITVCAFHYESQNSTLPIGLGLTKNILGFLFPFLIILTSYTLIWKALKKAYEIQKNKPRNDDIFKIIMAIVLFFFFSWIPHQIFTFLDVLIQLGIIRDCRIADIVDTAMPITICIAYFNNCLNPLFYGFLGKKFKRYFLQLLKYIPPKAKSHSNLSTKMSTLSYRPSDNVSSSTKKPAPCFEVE

Glucocorticoid receptor = target: T2, Glucocorticoid receptor (Homo sapiens, UniProt P04150)
T2 sequence (P04150 whole entry): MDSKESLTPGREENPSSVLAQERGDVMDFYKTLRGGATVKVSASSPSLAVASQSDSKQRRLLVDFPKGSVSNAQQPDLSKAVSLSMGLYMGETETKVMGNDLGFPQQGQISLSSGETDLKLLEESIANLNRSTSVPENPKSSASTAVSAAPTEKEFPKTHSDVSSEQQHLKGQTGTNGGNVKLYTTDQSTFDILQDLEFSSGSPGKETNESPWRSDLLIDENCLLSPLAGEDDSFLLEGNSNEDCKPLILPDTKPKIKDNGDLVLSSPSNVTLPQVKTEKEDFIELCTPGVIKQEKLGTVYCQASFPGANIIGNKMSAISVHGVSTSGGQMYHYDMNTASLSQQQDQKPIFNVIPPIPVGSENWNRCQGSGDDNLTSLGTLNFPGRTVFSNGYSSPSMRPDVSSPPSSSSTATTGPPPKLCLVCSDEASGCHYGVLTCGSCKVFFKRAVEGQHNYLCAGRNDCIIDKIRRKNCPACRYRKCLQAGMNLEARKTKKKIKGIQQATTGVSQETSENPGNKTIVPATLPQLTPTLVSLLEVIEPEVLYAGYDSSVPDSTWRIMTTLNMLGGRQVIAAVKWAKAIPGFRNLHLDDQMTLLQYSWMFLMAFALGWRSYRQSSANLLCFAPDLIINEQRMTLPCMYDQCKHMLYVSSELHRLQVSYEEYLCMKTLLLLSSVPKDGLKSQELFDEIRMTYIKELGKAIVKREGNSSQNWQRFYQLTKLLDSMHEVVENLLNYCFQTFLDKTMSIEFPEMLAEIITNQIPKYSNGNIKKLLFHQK

[2] = target: T3, Alpha-2C adrenergic receptor (Homo sapiens, UniProt P18825); assay type: functional
T3 sequence (P18825 whole entry): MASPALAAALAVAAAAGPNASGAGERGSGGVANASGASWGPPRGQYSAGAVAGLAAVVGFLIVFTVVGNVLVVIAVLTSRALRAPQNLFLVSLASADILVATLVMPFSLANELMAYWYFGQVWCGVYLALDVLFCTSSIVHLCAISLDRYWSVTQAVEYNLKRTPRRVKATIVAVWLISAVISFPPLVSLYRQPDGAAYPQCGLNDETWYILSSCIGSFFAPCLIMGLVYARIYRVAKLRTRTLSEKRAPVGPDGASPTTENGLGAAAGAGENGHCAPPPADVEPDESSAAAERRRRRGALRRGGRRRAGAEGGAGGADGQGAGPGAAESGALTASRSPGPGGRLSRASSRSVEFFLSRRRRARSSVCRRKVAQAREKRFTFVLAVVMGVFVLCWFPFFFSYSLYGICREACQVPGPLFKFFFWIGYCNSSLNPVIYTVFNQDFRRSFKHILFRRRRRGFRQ

[3] = target: cGMP-inhibited 3',5'-cyclic phosphodiesterase 3A (Homo sapiens, UniProt Q14432); assay type: functional
Histamine H2 receptor = Histamine H2 receptor (Homo sapiens, UniProt P25021); assay type: functional, cell-based
[4] = target: T4, Alpha-1A adrenergic receptor (Homo sapiens, UniProt P35348); assay type: functional, cell-based
T4 sequence (P35348 whole entry): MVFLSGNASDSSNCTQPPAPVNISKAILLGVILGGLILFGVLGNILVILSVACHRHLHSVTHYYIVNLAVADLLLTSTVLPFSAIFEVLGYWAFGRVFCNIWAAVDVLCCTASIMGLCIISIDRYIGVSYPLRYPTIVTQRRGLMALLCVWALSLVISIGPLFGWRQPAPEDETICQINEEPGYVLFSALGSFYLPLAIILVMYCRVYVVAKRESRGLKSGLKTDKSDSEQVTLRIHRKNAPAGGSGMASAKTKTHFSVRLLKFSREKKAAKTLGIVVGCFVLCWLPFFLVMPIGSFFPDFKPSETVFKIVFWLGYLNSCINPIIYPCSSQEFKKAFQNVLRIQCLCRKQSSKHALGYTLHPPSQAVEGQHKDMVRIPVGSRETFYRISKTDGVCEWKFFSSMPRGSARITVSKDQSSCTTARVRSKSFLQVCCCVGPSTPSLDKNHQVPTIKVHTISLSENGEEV

[5] = target: T5, Neuropeptide Y receptor type 1 (Homo sapiens, UniProt P25929)
T5 sequence (P25929 whole entry): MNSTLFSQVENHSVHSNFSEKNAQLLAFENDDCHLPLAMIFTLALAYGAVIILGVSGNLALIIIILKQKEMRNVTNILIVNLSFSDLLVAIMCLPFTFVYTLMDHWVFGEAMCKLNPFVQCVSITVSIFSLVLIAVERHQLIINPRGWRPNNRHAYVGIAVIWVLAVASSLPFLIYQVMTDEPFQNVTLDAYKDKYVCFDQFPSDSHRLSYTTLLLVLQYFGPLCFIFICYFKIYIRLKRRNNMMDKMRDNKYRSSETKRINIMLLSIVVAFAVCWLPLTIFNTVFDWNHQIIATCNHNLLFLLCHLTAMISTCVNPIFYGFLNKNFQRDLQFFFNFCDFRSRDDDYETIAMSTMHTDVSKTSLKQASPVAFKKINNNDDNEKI

[6] = target: 5-hydroxytryptamine receptor 2A (Homo sapiens, UniProt P28223); assay type: functional, cell-based
[7] = target: Muscarinic acetylcholine receptor M3 (Homo sapiens, UniProt P20309)
[8] = target: Sodium-dependent dopamine transporter (Homo sapiens, UniProt Q01959)
Melanocortin receptor 3 = Melanocortin receptor 3 (Homo sapiens, UniProt P41968)
[9] = target: 5-hydroxytryptamine receptor 2B (Homo sapiens, UniProt P41595); assay type: functional, cell-based
Note: assay procedure not described here.

Sequence of Vasopressin V2 receptor (P30518 whole entry): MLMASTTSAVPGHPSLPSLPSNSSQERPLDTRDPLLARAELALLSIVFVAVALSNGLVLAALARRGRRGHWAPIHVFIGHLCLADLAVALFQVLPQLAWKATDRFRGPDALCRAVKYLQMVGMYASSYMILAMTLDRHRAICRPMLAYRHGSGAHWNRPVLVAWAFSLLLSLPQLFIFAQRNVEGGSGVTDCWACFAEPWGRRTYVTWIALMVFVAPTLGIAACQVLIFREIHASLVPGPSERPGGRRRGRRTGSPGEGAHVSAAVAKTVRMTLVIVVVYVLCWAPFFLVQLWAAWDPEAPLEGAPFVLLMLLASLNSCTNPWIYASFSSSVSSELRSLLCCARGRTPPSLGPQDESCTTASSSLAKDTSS
Sequence of Melanocortin receptor 3 (P41968 whole entry): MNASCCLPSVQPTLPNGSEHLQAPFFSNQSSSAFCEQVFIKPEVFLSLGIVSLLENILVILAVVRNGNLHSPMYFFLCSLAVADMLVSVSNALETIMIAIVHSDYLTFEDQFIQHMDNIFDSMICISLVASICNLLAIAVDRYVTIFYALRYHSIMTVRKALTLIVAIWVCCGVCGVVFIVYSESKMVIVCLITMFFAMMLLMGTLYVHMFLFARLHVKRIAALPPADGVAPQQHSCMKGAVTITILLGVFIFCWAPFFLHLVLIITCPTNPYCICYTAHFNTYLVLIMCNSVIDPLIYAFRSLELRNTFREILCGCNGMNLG
Sequence of 5-hydroxytryptamine receptor 2B (P41595 whole entry): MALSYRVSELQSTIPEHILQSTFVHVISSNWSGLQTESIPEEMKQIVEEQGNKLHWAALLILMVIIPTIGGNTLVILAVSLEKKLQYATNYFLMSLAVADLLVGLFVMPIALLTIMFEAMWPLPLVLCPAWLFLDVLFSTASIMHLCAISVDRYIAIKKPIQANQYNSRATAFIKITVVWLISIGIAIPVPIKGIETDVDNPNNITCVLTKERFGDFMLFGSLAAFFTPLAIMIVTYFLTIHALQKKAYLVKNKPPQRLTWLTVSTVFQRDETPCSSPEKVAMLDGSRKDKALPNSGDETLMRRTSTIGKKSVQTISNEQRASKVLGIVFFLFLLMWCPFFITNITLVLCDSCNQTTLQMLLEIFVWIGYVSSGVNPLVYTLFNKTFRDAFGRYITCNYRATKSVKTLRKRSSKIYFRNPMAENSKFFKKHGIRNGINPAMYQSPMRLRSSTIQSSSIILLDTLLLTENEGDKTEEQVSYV
Sequence of Muscarinic acetylcholine receptor M3 (P20309 whole entry): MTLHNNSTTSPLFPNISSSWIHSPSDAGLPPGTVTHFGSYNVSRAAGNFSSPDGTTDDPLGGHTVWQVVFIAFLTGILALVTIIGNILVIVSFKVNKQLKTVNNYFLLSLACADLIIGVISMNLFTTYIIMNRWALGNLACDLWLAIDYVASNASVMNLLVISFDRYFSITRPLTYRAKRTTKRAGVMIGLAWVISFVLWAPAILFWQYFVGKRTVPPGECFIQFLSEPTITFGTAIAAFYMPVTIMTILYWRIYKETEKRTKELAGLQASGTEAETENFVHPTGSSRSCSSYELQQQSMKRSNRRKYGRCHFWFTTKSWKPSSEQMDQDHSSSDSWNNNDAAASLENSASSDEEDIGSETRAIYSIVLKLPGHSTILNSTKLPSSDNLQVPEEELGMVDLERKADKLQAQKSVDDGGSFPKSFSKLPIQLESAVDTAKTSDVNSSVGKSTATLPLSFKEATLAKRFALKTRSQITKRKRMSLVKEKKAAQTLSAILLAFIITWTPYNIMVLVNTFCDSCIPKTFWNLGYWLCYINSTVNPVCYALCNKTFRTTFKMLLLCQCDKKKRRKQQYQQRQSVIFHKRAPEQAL
Sequence of Histamine H2 receptor (P25021 whole entry): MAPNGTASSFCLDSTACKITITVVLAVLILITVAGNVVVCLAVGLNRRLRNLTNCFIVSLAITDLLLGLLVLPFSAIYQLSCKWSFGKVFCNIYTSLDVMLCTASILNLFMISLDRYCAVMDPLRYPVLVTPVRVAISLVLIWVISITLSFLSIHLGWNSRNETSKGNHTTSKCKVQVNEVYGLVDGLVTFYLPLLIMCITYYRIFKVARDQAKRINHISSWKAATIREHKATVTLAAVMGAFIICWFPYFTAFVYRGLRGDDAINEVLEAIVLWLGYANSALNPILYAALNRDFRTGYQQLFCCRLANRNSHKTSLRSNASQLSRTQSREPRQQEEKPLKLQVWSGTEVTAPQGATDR
Sequence of 5-hydroxytryptamine receptor 2A (P28223 whole entry): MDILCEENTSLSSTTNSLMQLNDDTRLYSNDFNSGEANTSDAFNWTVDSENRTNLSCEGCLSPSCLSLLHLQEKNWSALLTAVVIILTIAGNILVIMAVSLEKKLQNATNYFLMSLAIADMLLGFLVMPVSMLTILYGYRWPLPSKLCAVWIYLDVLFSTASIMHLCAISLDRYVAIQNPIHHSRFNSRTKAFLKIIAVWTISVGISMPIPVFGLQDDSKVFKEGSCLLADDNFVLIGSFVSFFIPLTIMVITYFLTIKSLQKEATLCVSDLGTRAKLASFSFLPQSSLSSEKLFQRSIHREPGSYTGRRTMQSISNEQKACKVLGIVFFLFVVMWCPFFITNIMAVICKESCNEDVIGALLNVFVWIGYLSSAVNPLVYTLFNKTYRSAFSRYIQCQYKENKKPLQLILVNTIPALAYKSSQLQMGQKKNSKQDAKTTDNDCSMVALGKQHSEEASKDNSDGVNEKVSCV
Sequence of Sodium-dependent dopamine transporter (Q01959 whole entry): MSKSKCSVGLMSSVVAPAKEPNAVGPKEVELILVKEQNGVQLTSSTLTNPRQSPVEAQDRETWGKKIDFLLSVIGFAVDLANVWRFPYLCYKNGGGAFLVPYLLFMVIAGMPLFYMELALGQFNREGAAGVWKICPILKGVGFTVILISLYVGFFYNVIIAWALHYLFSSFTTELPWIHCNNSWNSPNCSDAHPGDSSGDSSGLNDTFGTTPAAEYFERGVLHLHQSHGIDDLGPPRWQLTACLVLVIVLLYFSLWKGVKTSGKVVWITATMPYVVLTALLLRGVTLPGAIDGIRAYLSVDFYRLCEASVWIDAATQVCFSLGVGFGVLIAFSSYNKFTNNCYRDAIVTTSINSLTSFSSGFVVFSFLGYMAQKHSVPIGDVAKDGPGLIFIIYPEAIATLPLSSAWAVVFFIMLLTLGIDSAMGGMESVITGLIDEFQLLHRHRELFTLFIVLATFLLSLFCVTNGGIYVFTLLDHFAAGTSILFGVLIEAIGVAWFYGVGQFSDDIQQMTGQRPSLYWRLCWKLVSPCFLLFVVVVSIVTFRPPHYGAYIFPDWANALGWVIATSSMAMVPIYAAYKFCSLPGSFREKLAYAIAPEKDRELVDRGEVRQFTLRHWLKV
Sequence of cGMP-inhibited 3',5'-cyclic phosphodiesterase 3A (Q14432 whole entry): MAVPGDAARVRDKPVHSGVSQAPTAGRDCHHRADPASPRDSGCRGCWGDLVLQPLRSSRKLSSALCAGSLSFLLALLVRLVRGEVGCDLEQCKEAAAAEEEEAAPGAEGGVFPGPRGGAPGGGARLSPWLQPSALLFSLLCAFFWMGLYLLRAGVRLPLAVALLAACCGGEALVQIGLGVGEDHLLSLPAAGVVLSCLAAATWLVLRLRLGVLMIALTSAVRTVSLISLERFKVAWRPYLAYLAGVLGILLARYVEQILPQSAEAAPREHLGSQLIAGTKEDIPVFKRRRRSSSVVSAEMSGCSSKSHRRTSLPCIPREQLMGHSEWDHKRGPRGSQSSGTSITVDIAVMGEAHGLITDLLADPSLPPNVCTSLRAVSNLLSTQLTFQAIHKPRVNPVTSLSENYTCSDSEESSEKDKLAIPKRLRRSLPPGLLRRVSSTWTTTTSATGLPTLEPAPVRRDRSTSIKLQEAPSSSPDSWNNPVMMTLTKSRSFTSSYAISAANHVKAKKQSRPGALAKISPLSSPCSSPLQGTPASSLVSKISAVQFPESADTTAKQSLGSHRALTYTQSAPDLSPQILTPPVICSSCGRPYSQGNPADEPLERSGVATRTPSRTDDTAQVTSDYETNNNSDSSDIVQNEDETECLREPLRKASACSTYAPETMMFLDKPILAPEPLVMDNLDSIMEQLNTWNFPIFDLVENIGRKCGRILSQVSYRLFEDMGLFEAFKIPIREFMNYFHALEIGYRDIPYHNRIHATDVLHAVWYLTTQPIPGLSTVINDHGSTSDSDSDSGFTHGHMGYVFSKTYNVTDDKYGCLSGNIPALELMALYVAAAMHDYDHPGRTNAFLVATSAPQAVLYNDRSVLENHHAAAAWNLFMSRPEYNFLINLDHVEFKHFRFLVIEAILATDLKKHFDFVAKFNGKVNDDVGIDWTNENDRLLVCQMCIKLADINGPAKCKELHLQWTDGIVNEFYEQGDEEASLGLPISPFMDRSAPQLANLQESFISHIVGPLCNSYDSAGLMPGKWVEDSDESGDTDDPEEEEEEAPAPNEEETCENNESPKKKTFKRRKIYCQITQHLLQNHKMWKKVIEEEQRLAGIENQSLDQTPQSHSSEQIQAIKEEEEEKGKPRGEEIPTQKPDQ

Row | Compound | AC50 (Vasopressin V2 receptor) [µM] | AC50 [1] [µM] | AC50 (Glucocorticoid receptor) [µM] | AC50 [2] [µM] | AC50 [3] [µM] | AC50 (Histamine H2 receptor) [µM] | AC50 [4] [µM] | AC50 [5] [µM] | AC50 [6] [µM] | AC50 [7] [µM] | AC50 [8] [µM] | AC50 (Melanocortin receptor 3) [µM] | AC50 [9] [µM]
1 | N#Cc1ccccc1-c1cc(-c2ccccn2)cn(-c2ccccc2)c1=O | > 30 | > 30 | > 30 | > 30 | > 30 | > 30 | > 30 | > 30 | > 30 | > 30 | > 30 | > 30 | > 30
2 | N=C(N)NCCCCCCC(=O)NC(O)C(=O)NCCCCNCCCN (stereo not drawn) | > 30 | > 30 | > 30 | > 30 | > 30 | > 30 | > 30 | > 30 | > 30 | > 30 | > 30 | > 30 | > 30
3 | CC(=O)OCC(=O)[C@@]1(O)CC[C@H]2[C@@H]3CCC4=CC(=O)CC[C@]4(C)C3=CC[C@@]21C [ANECORTAVE ACETATE] | > 10 | > 10 | 1.7 | > 10 | > 30 | > 10 | > 30 | > 10 | > 10 | > 30 | > 10 | > 10 | > 10
4 | O=C(CCCN1CCC(n2c(O)nc3ccccc32)CC1)c1ccc(F)cc1 [BENPERIDOL] | > 30 | > 30 | > 30 | 1.9 | > 30 | > 30 | 0.0706 | > 30 | 0.12 | 12 | 11 | > 30 | > 30
5 | CCN(CC)C(=O)C1CN2CCc3cc(OC)c(OC)cc3C2CC1OC(C)=O (stereo not drawn) [BENZQUINAMIDE] | > 30 | > 30 | > 30 | 1.7 | > 30 | > 30 | > 30 | > 30 | 1.57 | > 30 | > 30 | > 30 | > 30
6 | CCCCC1(CC)C(=O)NC(=O)NC1=O [BUTETHAL] | > 30 | > 30 | > 30 | > 30 | > 30 | > 30 | > 30 | > 30 | > 30 | > 30 | > 30 | > 30 | > 30
